The assay deals with T1, XIAP-BIR3 (Homo sapiens, UniProt P98170).
T1 construct: 40 nM of XIAP-BIR3 for 15 min at RT
Description: XIAP BIR-3 fluorescence polarization binding assay. Conditions: for pKd: read-out: KD Range. Here is the method: Following incubation, the polarization values (mP) were measured on a Victor^2V using a 485 nm excitation filter and a 520 nm emission filter. IC50 values were determined from the plot using nonlinear least-squares analysis using GraphPad Prism.

Where [1] appears, read: 5 nM AbuRPF-K(5-Fam)-NH2, 40 nM XIAP-BIR3, 15 min RT, pH 7.5.

Here are results for 37 compounds from patent US9187490B2, “Dimeric IAP inhibitors” (TetraLogic Pharmaceuticals Corporation, priority 2005, dated 2015).

pKd: −log10 of the molar value. Like-named read-outs stand apart in the source and are kept apart here.

T1 sequence (P98170 241-356 limits assumed): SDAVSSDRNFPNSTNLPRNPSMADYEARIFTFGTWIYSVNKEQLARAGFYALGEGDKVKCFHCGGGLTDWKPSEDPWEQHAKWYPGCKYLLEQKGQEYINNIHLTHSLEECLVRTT

As to `CN[C@@H](C)C(=O)N[C@H](C(=O)N1C[C@@H](O)C[C@H]1Cc1c(-c2ccc(-c3[nH]c4cc(F)ccc4c3C[C@@H]3C[C@H](O)CN3C(=O)[C@@H](NC(=O)[C@H](C)NC)C(C)C)cc2)[nH]c2cc(F)ccc12)C(C)C` [Entry 29], the pKd under setting [1] was more than 7.00.
Still for that read-out and setting: the value for `CN[C@@H](C)C(=O)N[C@H](C(=O)N1CCC[C@H]1Cc1cn(CC#CC#CCn2cc(C[C@@H]3CCCN3C(=O)[C@@H](NC(=O)[C@H](C)NC)C(C)(C)C)c3ccccc32)c2ccccc12)C(C)(C)C` [Entry 119] was more than 7.00.
Same read-out and setting: the value for `CN[C@@H](C)C(=O)N[C@H](C(=O)N1CCC[C@H]1Cc1c(-c2ccc(-c3c(C[C@@H]4CCCN4C(=O)[C@@H](NC(=O)[C@H](C)NC)[C@@H](C)O)c4ccc(F)cc4n3CCO)cc2)n(CCO)c2cc(F)ccc12)[C@@H](C)O` [Entry 44] was more than 7.00.
`CN[C@@H](C)C(=O)N[C@@H](C)C(=O)N1CCC[C@H]1Cc1c(-c2[nH]c3cc(F)ccc3c2C[C@@H]2CCCN2C(=O)[C@H](C)NC(=O)[C@H](C)NC)[nH]c2cc(F)ccc12` [Entry 77]: where the note is “Example 4 series”, the pKd was 6.00 to 7.00.
Same read-out and setting: the value for `CN[C@@H](C)C(=O)N[C@H](C(=O)N1C[C@@H](O)C[C@H]1Cc1c(-c2[nH]c3cc(F)ccc3c2C[C@@H]2C[C@H](O)CN2C(=O)[C@@H](NC(=O)[C@H](C)NC)C(C)C)[nH]c2cc(F)ccc12)C(C)C` [Entry 87] was more than 7.00; that for `CN[C@@H](C)C(=O)N[C@H](C(=O)N1CCC[C@H]1Cc1c(-c2[nH]c3ccc(F)cc3c2C[C@@H]2CCCN2C(=O)[C@@H](NC(=O)[C@H](C)NC)C(C)C)[nH]c2ccc(F)cc12)C(C)C` [Entry 75] was more than 7.00.
Turning to `CNC(C)C(=O)NC(C(=O)N1CCCC1Cc1c(-c2ccc(-c3c(CC4CCCN4C(=O)C(NC(=O)C(C)NC)C(C)(C)C)c4ccc(F)cc4n3CCO)cc2)n(CCO)c2cc(F)ccc12)C(C)(C)C` (single isomer, unassigned) [Entry 487], the pKd under setting [1] is more than 7.00.
On the same count and under the same terms, the value for `CC[C@H](N)C(=O)N[C@H](C(=O)N1CCC[C@H]1Cc1c(-c2ccc(-c3oc4ccccc4c3C[C@@H]3CCCN3C(=O)[C@@H](NC(=O)[C@@H](N)CC)C(C)C)cc2)oc2ccccc12)C(C)C` [Entry 11] was more than 7.00; that for `CN[C@@H](C)C(=O)N[C@H](C(=O)N1CCC[C@H]1Cc1c(-c2ccc(-c3oc4ccccc4c3C[C@@H]3CCCN3C(=O)[C@@H](NC(=O)[C@H](C)NC)C(C)C)cc2)oc2ccccc12)C(C)C` [Entry 10] was more than 7.00.
As to `CN[C@@H](C)C(=O)N[C@H](C(=O)N1CCC[C@H]1Cc1c(-c2ccc(-c3[nH]c4cc(F)ccc4c3C[C@@H]3CCCN3C(=O)[C@@H](NC(=O)[C@H](C)NC)[C@@H](C)OCc3ccccc3)cc2)[nH]c2cc(F)ccc12)[C@@H](C)OCc1ccccc1` [Entry 25], under setting [1], the pKd is more than 7.00.
Turning to `CN[C@@H](C)C(=O)N[C@H](C(=O)N1CCC[C@H]1Cc1c(-c2[nH]c3cc(F)ccc3c2C[C@@H]2CCCN2C(=O)[C@@H](NC(=O)[C@H](C)N)C(C)C)[nH]c2cc(F)ccc12)C(C)C` [Entry 74], under “Example 4 series”, the pKd was more than 7.00.
On to `CNC(C)C(=O)NC(C(=O)N1CCCC1Cc1c(-c2ccc(-c3c(CC4CCCN4C(=O)C(NC(=O)C(C)NC)C(C)(C)C)c4ccc(F)cc4n3CCO)cc2)n(CCO)c2cc(F)ccc12)C(C)(C)C` (single isomer, unassigned) [Entry 60], for which, under setting [1], the pKd is 5.00 to 6.00.
With `CN[C@@H](C)C(=O)N[C@H](C(=O)N1CCC[C@H]1Cc1c(-c2ccc(-c3c(C[C@@H]4CCCN4C(=O)[C@@H](NC(=O)[C@H](C)NC)C(C)C)c4ccc(F)cc4n3CCOC)cc2)n(CCOC)c2cc(F)ccc12)C(C)C` [Entry 52], the pKd under setting [1] was more than 7.00.
In the case of `CN[C@@H](C)C(=O)N[C@H](C(=O)N1CCC[C@H]1Cc1c(-c2[nH]c3cc(F)ccc3c2C[C@@H]2CCCN2C(=O)[C@@H](NC(=O)[C@H](C)NC)C(C)C)[nH]c2cc(F)ccc12)C(C)C` [Entry 73], the pKd (Example 4 series) was more than 7.00.
`CN[C@@H](C)C(=O)N[C@H](C(=O)N1CCC[C@H]1Cc1c(-c2ccc(-c3[nH]c4cc(F)ccc4c3C[C@@H]3CCCN3C(=O)[C@@H](NC(=O)[C@H](C)NC)C3CCCCC3)cc2)[nH]c2cc(F)ccc12)C1CCCCC1` [Entry 38]: the pKd under setting [1] is more than 7.00.
The same measure, in the same setting: the value for `CN[C@@H](C)C(=O)NC1CCCC[C@H](NC(=O)[C@H](C)NC)C(=O)N2CCC[C@H]2Cc2c3n(c4ccc(F)cc24)CCn2c-3c(c3cc(F)ccc32)C[C@@H]2CCCN2C1=O` (some centres unmarked) [Entry 97] was more than 7.00.
For `C[C@H](N)C(=O)N[C@H](C(=O)N1CCC[C@H]1Cc1c(-c2ccc(-c3[nH]c4cc(F)ccc4c3C[C@@H]3CCCN3C(=O)[C@@H](NC(=O)[C@H](C)N)C3CCCCC3)cc2)[nH]c2cc(F)ccc12)C1CCCCC1` [Entry 39], the negative-log Kd (pKd) under setting [1] is more than 7.00.
As to `CN[C@@H](C)C(=O)N[C@H](C(=O)N1CCC[C@H]1Cc1cn(CCOCCn2cc(C[C@@H]3CCCN3C(=O)[C@@H](NC(=O)[C@H](C)NC)C3CCCCC3)c3cc(F)ccc32)c2ccc(F)cc12)C1CCCCC1` [Entry 126], the pKd (Example 9 series) was more than 7.00.
`CN[C@@H](C)C(=O)N[C@H](C(=O)N1C[C@H](O)C[C@H]1Cc1c(-c2ccc(-c3[nH]c4ccccc4c3C[C@@H]3C[C@@H](O)CN3C(=O)[C@@H](NC(=O)[C@H](C)NC)C(C)C)cc2)[nH]c2ccccc12)C(C)C` [Entry 37]: under setting [1], the pKd is 6.00 to 7.00.
The same measure, in the same setting: the value for `CN[C@@H](C)C(=O)N[C@H](C(=O)N1CCC[C@H]1Cc1c(-c2ccc(-c3oc4ccccc4c3C[C@@H]3CCCN3C(=O)[C@@H](NC(=O)[C@H](C)NC)C(C)(C)C)cc2)oc2ccccc12)C(C)(C)C` [Entry 8] was more than 7.00.
For `CN[C@@H](C)C(=O)N[C@H](C(=O)N1CCC[C@H]1Cc1c(-c2[nH]c3cc(F)ccc3c2C[C@@H]2CCCN2C(=O)[C@@H](NC(=O)[C@H](C)NC)C2CCCCC2)[nH]c2cc(F)ccc12)C1CCCCC1` [Entry 85], the pKd (Example 4 series) is more than 7.00.
Take `CN[C@H](C)C(=O)N[C@H](C(=O)N1CCC[C@H]1Cc1c(-c2[nH]c3cc(F)ccc3c2C[C@@H]2CCCN2C(=O)[C@@H](NC(=O)[C@@H](C)NC)C(C)C)[nH]c2cc(F)ccc12)C(C)C` [Entry 91]: under “Example 4 series”, the pKd is 6.00 to 7.00.
Consider `CN[C@@H](C)C(=O)N[C@H](C(=O)N1CCC[C@H]1Cc1c(-c2ccc(-c3c(C[C@@H]4CCCN4C(=O)[C@@H](NC(=O)[C@H](C)NC)C(C)(C)C)c4ccc(F)cc4n3CCOC)cc2)n(CCOC)c2cc(F)ccc12)C(C)(C)C` [Entry 51], for which the pKd under setting [1] was more than 7.00.
`CC(C)[C@H](NC(=O)CN)C(=O)N1CCC[C@H]1Cc1c(-c2[nH]c3cc(F)ccc3c2C[C@@H]2CCCN2C(=O)[C@@H](NC(=O)CN)C(C)C)[nH]c2cc(F)ccc12` [Entry 81]: the pKd (Example 4 series) was 6.00 to 7.00.
With `CC(C)[C@H](NC(=O)[C@H](C)N)C(=O)N1CCC[C@H]1Cc1c(-c2ccc(-c3[nH]c4cc(F)ccc4c3C[C@@H]3CCCN3C(=O)[C@@H](NC(=O)[C@H](C)N)C(C)C)s2)[nH]c2cc(F)ccc12` [Entry 17], the pKd under setting [1] was more than 7.00. In addition, for the setting “XIAP BIR-3, FIG. 1”, the “increase in binding affinity relative to the Smac tetrapeptide (AVPI)” value is 30,000 fold.
As to `CNC(C)C(=O)NC(C(=O)N1CC(O)CC1Cc1c(-c2[nH]c3cc(F)ccc3c2CC2CC(O)CN2C(=O)C(NC(=O)C(C)NC)C(C)O)[nH]c2cc(F)ccc12)C(C)O` (centres unmarked) [Entry 90], under “Example 4 series”, the pKd is more than 7.00.
On to `CN[C@@H](C)C(=O)N[C@H](C(=O)N1CCC[C@H]1Cc1cn(CCOCCn2cc(C[C@@H]3CCCN3C(=O)[C@@H](NC(=O)[C@H](C)N)C3CCCCC3)c3ccccc32)c2ccccc12)C1CCCCC1` [Entry 143], for which the pKd (Example 9 series) is more than 7.00.
As for `CC(C)[C@H](NC(=O)[C@H](C)N)C(=O)N1CCC[C@H]1Cc1c(/C=C/c2oc3ccccc3c2C[C@@H]2CCCN2C(=O)[C@@H](NC(=O)[C@H](C)N)C(C)C)oc2ccccc12` [Entry 2], the pKd under setting [1] was more than 7.00.
As for `CN[C@@H](C)C(=O)N[C@H](C(=O)N1C[C@H](O)C[C@H]1Cc1c(-c2ccc(-c3[nH]c4ccccc4c3C[C@@H]3C[C@@H](O)CN3C(=O)[C@@H](NC(=O)[C@H](C)NC)C(C)(C)C)cc2)[nH]c2ccccc12)C(C)(C)C` [Entry 36], the pKd under setting [1] was 6.00 to 7.00.
Same read-out and setting: the value for `CC[C@H](N)C(=O)N[C@H](C(=O)N1CCC[C@H]1Cc1c(-c2ccc(-c3oc4ccccc4c3C[C@@H]3CCCN3C(=O)[C@@H](NC(=O)[C@@H](N)CC)C(C)(C)C)cc2)oc2ccccc12)C(C)(C)C` [Entry 9] was 6.00 to 7.00.
Regarding `CCC(C)[C@H](NC(=O)[C@H](C)NC)C(=O)N1CCC[C@H]1Cc1c(-c2[nH]c3ccc(F)cc3c2C[C@@H]2CCCN2C(=O)[C@@H](NC(=O)[C@H](C)NC)C(C)CC)[nH]c2ccc(F)cc12` (some centres unmarked) [Entry 82], for the setting “Example 4 series”, the pKd was more than 7.00.
For `CN[C@@H](C)C(=O)N[C@H](C(=O)N1CCC[C@H]1Cc1c(-c2ccc(-c3c(C[C@@H]4CCCN4C(=O)[C@@H](NC(=O)[C@H](C)NC)C(C)C)c4ccc(F)cc4n3C)cc2)n(C)c2cc(F)ccc12)C(C)C` [Entry 57], the pKd under setting [1] was more than 7.00.
Still for that read-out and setting: the value for `C[C@H](N)C(=O)N[C@H](C(=O)N1CCC[C@H]1Cc1c(-c2ccc(-c3oc4ccccc4c3C[C@@H]3CCCN3C(=O)[C@@H](NC(=O)[C@H](C)N)C3CCCCC3)cc2)oc2ccccc12)C1CCCCC1` [Entry 12] was more than 7.00; that for `CN[C@@H](C)C(=O)N[C@H](C(=O)N1CCC[C@H]1Cc1c(-c2ccc(-c3[nH]c4cc(F)ccc4c3C[C@@H]3CCCN3C(=O)[C@@H](NC(=O)[C@H](C)NC)[C@@H](C)OCc3ccccc3)cc2)[nH]c2cc(F)ccc12)[C@@H](C)O` [Entry 26] was more than 7.00; that for `CN[C@@H](C)C(=O)N[C@H](C(=O)N1CCC[C@H]1Cc1c(-c2ccc(-c3oc4ccccc4c3C[C@@H]3CCCN3C(=O)[C@@H](NC(=O)[C@H](C)NC)C3CCCCC3)cc2)oc2ccccc12)C1CCCCC1` [Entry 13] was more than 7.00.
Turning to `CNC(C)C(=O)NC(C(=O)N1CC(O)CC1Cc1c(-c2[nH]c3cc(F)ccc3c2CC2CC(O)CN2C(=O)C(NC(=O)C(C)NC)C(C)OC(C)(C)C)[nH]c2cc(F)ccc12)C(C)OC(C)(C)C` (centres unmarked) [Entry 89], the pKd (Example 4 series) was 6.00 to 7.00.
`C[C@H](N)C(=O)N[C@H](C(=O)N1CCC[C@H]1Cc1c(-c2ccc(-c3[nH]c4cc(F)ccc4c3C[C@@H]3CCCN3C(=O)[C@@H](NC(=O)[C@H](C)N)C3CCCCC3)cc2)[nH]c2cc(F)ccc12)C1CCCCC1` [Entry 19]: the pKd under setting [1] is more than 7.00.

What is called pKd is the negative decadic logarithm of the Kd, by convention in mol/L.
